From PMC9019100, “Development of NanoLuc-targeting protein degraders and a universal reporter system to benchmark tag-targeted degradation platforms” (Nature Communications, 2022)
Several values for one entry are separate records, joined by “and”; a condition that tells them apart may be missing. Identical values can stand only once. Like-named read-outs stand apart in the source and are kept apart here.

Columns and labels:
[1] = biological target: T1, Halo-EGFP-NanoLuc-FKBP^F36V (H-E-N-F) fusion protein (UniProt P0A3G2+P62942+Q9GV45, A155T/A167V/A172T/A224E/A31E/A60N/A81I/C128F/C176G/D78G/E160K/E257K/F37V/F95D/H272N/I117V/K175M/K195N/K70R/L47V/L54V/L88M/L99Q/M102K/N193R/N227D/P142E/P291S/Q151K/Q38R/Q45L/S2A/S58T/T264A/V71I/Y165I/Y273L/Y87F); type: cell-based; settings: replicate wells; for Blank corrected Raw Data (470-80): +dox, PROTAC 500nM
Target sequence in this assay (Q9GV45 other isoform, or with tags, fused parts or gaps with the stated changes): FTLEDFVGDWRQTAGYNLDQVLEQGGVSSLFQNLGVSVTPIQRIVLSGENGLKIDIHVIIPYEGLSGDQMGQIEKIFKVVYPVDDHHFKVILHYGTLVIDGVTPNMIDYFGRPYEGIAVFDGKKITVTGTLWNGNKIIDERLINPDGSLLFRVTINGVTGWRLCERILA
Target sequence in this assay (P0A3G2 other isoform, or with tags, fused parts or gaps with the stated changes): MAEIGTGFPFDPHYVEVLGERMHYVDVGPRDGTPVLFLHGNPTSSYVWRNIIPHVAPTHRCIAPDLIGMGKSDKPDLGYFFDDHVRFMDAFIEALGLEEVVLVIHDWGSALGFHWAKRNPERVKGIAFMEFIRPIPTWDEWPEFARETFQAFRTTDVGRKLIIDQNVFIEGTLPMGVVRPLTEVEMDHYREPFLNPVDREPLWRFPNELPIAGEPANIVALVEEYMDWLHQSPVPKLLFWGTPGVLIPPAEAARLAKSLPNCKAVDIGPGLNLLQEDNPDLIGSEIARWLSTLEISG
Target sequence in this assay (P62942 whole entry F37V, the tested form may be a part): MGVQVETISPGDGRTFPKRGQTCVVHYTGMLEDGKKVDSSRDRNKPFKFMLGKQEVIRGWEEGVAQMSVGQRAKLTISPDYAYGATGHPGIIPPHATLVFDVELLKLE

[2] = tested on: MLKL^−/− HT29 cells expressing untagged MLKL; type: cell-based; settings: MLKL-/- + MLKL, independent experiments
Description: Cell death was assessed by flow cytometric analysis of PI exclusion. […] Cell death was assessed by flow cytometric analysis of PI exclusion. […] Cell death was assessed by flow cytometric analysis of PI exclusion. e N = 4, f N = 3 independent experiments (symbols), EB represent mean ± SD. g Western from MLKL^−/−CASP8^−/− HT29 cells stably expressing the doxycycline-inducible C-terminal fusion protein, MLKL-NanoLuc (MLKL-NLuc) and constitutively expressing the C-terminal fusion protein caspase-8-FKBP^F36V. […] Cell death was assessed using an IncuCyte and Cytotox-Red uptake. N = 3 independent experiments, one representative experiment shown, EB represent mean ± SD.
Degrader compounds or a DMSO vehicle control were added for 5 h, as stated in the Fig. legends. Cells were detached using Trypsin-EDTA (Merck) and resuspended in cell supernatants containing 10 μg/mL propidium iodide (PI). PI exclusion analysis was performed using an LSR II flow cytometer (Becton Dickinson, NJ) with 10,000 single-cell events per sample. Flow cytometry data were analysed using WEASEL version 2.7 software (Frank Battye).

[3] = tested on: wild-type HT29 cells; test: Necroptosis assay (PI exclusion, flow cytometry), wild-type HT29 cells, TNF+SM+IDN; type: cell-based, human; settings: Unt (no death stimulus); sheet S5F
In short: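 HT29 cells were pretreated 5 h with 500 nM degrader or DMSO, then stimulated 24 h with TNF (100 ng/mL), Smac mimetic compound A (500 nM–1 µM) and emricasan (IDN, 5 µM). Cell death was scored by flow cytometry as PI uptake (10 μg/mL PI, 10,000 events/sample), N = 3 replicates.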

[4] = tested on: MLKL^−/−CASP8^−/− HT29 cells expressing MLKL-NLuc and caspase-8-FKBP^F36V; settings: TNF+SM
[5] = biological target: T1, Halo-EGFP-NanoLuc-FKBP^F36V (H-E-N-F) fusion protein; type: cell-based; parameters: expressed in transfected cells; host or cells: immortalized mouse dermal fibroblasts (iMDFs), ubiquitin promoter, constitutive; settings: 500 nM
Target sequence in this assay (P0A3G2 other isoform, or with tags, fused parts or gaps with the stated changes): as the sequence (P0A3G2 other isoform, or with tags, fused parts or gaps with the stated changes) above
Target sequence in this assay (Q9GV45 other isoform, or with tags, fused parts or gaps with the stated changes): as the sequence (Q9GV45 other isoform, or with tags, fused parts or gaps with the stated changes) above
Target sequence in this assay (P62942 whole entry F37V, the tested form may be a part): as the sequence (P62942 whole entry F37V, the tested form may be a part) above

**Q.** What does the source list for `CCc1cccc(N(CC)C(=O)Cn2c(C(=O)NC3CCC(C(=O)NCCCCCCCC(=O)NCCCCNc4cccc5c4C(=O)N(C4CCC(=O)NC4=O)C5=O)CC3)cc3ccccc32)c1` (stereo not shown) [NC4]?
**A.** NanoLuc luminescence, Blank corrected (470-80) ([1]; 62.5nM, 2h): 4980 and 5006 and 4972; NanoLuc luminescence, Blank corrected (470-80) ([1]; 62.5nM, 4h): 5208 and 3005 and 4773 and 4875; NanoLuc luminescence, Blank corrected (470-80) ([1]; 62.5nM, 6h): 2838 and 2892 and 3957; NanoLuc luminescence, Blank corrected (470-80) ([1]; 62.5nM, 8h): 2020 and 2221 and 2420; NanoLuc luminescence, Blank corrected (470-80) ([1]; 62.5nM, 10h): 1449 and 1207 and 1837; NanoLuc luminescence, Blank corrected (470-80) ([1]; 250nM, 2h): 1535 and 1072 and 1399; NanoLuc luminescence, Blank corrected (470-80) ([1]; 250nM, 4h): 1441 and 855 and 1118; NanoLuc luminescence, Blank corrected (470-80) ([1]; 250nM, 6h): 752 and 593 and 657 and 1043; NanoLuc luminescence, Blank corrected (470-80) ([1]; 250nM, 8h): 745 and 600 and 575; NanoLuc luminescence, Blank corrected (470-80) ([1]; 250nM, 10h): 292 and 341 and 527; NanoLuc luminescence, Blank corrected (470-80) ([1]; 500nM, 2h): 894 and 649 and 1055 and 784; NanoLuc luminescence, Blank corrected (470-80) ([1]; 500nM, 4h): 690 and 518 and 723; NanoLuc luminescence, Blank corrected (470-80) ([1]; 500nM, 6h): 437 and 546 and 398 and 460; NanoLuc luminescence, Blank corrected (470-80) ([1]; 500nM, 8h): 261 and 295 and 351; NanoLuc luminescence, Blank corrected (470-80) ([1]; 500nM, 10h): 255 and 239 and 173; Blank corrected Raw Data (470-80) ([1]; DMSO (control) co-treatment): 1248 and 1289 and 1195 and 929; Blank corrected Raw Data (470-80) ([1]; co-treatment with MG132 (10uM)): 3006 and 3126 and 2730 and 2907; Live cells (%PI negative) after TNF+911+zVAD ([2]; 3.9nM): 6.4 and 6.9 and 5.3; Live cells (%PI negative) after TNF+911+zVAD ([2]; 7.8nM): 6.6 and 6 and 6.3; Live cells (%PI negative) after TNF+911+zVAD ([2]; 31.25nM): 6.5 and 6 and 7.1; Live cells (%PI negative) after TNF+911+zVAD ([2]; 62.5nM): 6 and 5.5 and 7.5; Live cells (%PI negative) after TNF+911+zVAD ([2]; 250nM): 4.9 and 6.4 and 6.1; Live cells (%PI negative) after TNF+911+zVAD ([2]; 500nM): 4 and 4.7 and 6.1; Live cells (%PI negative) after TNF+911+zVAD ([2]; 1000nM): 5.9 and 5.2 and 6.1; viable cells (PI exclusion) [3]: 70.2 and 66.8 and 70.5; Cytotox-Red uptake (cell death), IncuCyte ([4]; elapsed 0 h): 176; Cytotox-Red uptake (cell death), IncuCyte ([4]; elapsed 0.5 h): 196.812; Cytotox-Red uptake (cell death), IncuCyte ([4]; elapsed 1 h): 269.75; Cytotox-Red uptake (cell death), IncuCyte ([4]; elapsed 2 h): 726.062; Cytotox-Red uptake (cell death), IncuCyte ([4]; elapsed 3 h): 1441.19; Cytotox-Red uptake (cell death), IncuCyte ([4]; elapsed 4 h): 2153.69; Cytotox-Red uptake (cell death), IncuCyte ([4]; elapsed 5 h): 2734; Cytotox-Red uptake (cell death), IncuCyte ([4]; elapsed 6 h): 3193.62; Cytotox-Red uptake (cell death), IncuCyte ([4]; elapsed 6.5 h): 3375.81; Cytotox-Red uptake (cell death), IncuCyte ([4]; elapsed 7 h): 3569.31; Cytotox-Red uptake (cell death), IncuCyte ([4]; elapsed 7.5 h): 3696.25; Cytotox-Red uptake (cell death), IncuCyte ([4]; elapsed 8 h): 3846.56; Cytotox-Red uptake (cell death), IncuCyte ([4]; elapsed 9 h): 4053; Cytotox-Red uptake (cell death), IncuCyte ([4]; elapsed 9.5 h): 4125.31; Cytotox-Red uptake (cell death), IncuCyte ([4]; elapsed 10 h): 4221.25; Cytotox-Red uptake (cell death), IncuCyte ([4]; elapsed 10.5 h): 4287.44; Cytotox-Red uptake (cell death), IncuCyte ([4]; elapsed 11 h): 4360; Cytotox-Red uptake (cell death), IncuCyte ([4]; elapsed 12 h): 4474.25; Cytotox-Red uptake (cell death), IncuCyte ([4]; elapsed 13 h): 4557.19; Cytotox-Red uptake (cell death), IncuCyte ([4]; elapsed 13.5 h): 4775.06; Cytotox-Red uptake (cell death), IncuCyte ([4]; elapsed 14 h): 4760.06; Cytotox-Red uptake (cell death), IncuCyte ([4]; elapsed 14.5 h): 4770; Cytotox-Red uptake (cell death), IncuCyte ([4]; elapsed 15 h): 4767.69; Cytotox-Red uptake (cell death), IncuCyte ([4]; elapsed 16 h): 4884.75; Cytotox-Red uptake (cell death), IncuCyte ([4]; elapsed 17 h): 4901.56; Cytotox-Red uptake (cell death), IncuCyte ([4]; elapsed 18 h): 4950.62; Cytotox-Red uptake (cell death), IncuCyte ([4]; elapsed 19 h): 4959.75; Cytotox-Red uptake (cell death), IncuCyte ([4]; elapsed 19.5 h): 4920.31; time up to which degradation was seen, degrader left in the medium ([5]; 5, 24 or 48 h): up to 24 h; time up to which degradation was maintained, degrader removed at 5 h ([5]; 24 or 48 h after removal): not maintained
